Experimental data published in article PMC11764585, “Hybridization Design and High-Throughput Screening of Peptides with Immunomodulatory and Antioxidant Activities” (International Journal of Molecular Sciences, 2025).

Legend:
TNF-α = test: ELISA of TNF-α in RAW 264.7 culture supernatant; type: cell-based, mouse; settings: RAW 264.7 cells, peptide 100 μg/mL, 24 h, vs CON group
Protocol: (§1) RAW 264.7 macrophages (2 × 10^6 cells/well) were seeded in 6-well plates and incubated for 12 h. Hybrid peptides and parent peptides were added to achieve a final concentration of 100 μg/mL, LPS (100 ng/mL) as a positive control. After 24 h of incubation, the culture supernatants were collected, and the levels of TNF-α, IL-6, and IL-1β were measured using ELISA kits according to the manufacturer’s instructions (Solarbio, Beijing, China).

IL-1β = test: ELISA of IL-1β in RAW 264.7 culture supernatant; type: cell-based, mouse; settings: RAW 264.7 cells, peptide 100 μg/mL, 24 h, vs CON group
Protocol: as §1

RAW-Lucia NF-κB cells = test: NF-κB luciferase reporter assay; type: cell-based, mouse; settings: peptide 100 μg/mL, 12 h, luminescence, p < 0.05 vs control group
Excerpt: (§2) The ARE sequences and NF-κB element sequences are referenced in [52, 54]. Based on the sequence information, plasmids pCD-ARE-puro and pCDH-NF-κB-puro were constructed. These plasmids, along with pMD2.G and psPAX2, were transfected into HEK293T cells using a three-plasmid virus packaging system to produce viruses. The virus supernatants were then used to infect IPEC-J2 or RAW 264.7 cells, followed by positive clone screening with Puromycin. For the testing of stable cell lines, tBHQ was used for IPEC-J2-Lucia ARE cells and LPS was used for RAW-Lucia NF-κB cells.
(§3) Candidate peptides (100 μg/mL) were incubated with RAW-Lucia NF-κB or IPEC-J2-Lucia ARE cells (3 × 10⁵ cells/well) in 96-well plates for 12 h. LPS (100 ng/mL) was used as the positive control for the RAW-Lucia NF-κB cells and tBHQ (10 μM) was used as the positive control for the IPEC-J2-Lucia ARE cells. Subsequently, 15 μL of the culture supernatant was mixed with 50 μL of detection buffer (50 mM HEPES, pH 7.0; 50 mM NaCl; 0.05% CHAPS; 10 mM EDTA; and 1 μM coelenterazine). Luminescence was measured using a multimode plate reader, and relative luminescence units (RLUs) were calculated.

IL-6 = test: ELISA of IL-6 in RAW 264.7 culture supernatant; type: cell-based, mouse; settings: RAW 264.7 cells, peptide 100 μg/mL, 24 h, vs CON group
Protocol: as §1

IPEC-J2-Lucia ARE cells = test: ARE luciferase reporter assay; type: cell-based; settings: peptide 100 μg/mL, 12 h, luminescence
Excerpt: as §2, §3

HepG2 cells = test: H2O2-induced oxidative damage model in HepG2 cells; type: cell-based; settings: peptide 100 ng/mL pre-incubation 2 h, then H2O2 650 μM 6 h; for Protective effect against H2O2-induced oxidative damage (result in words): CCK-8 viability, vs model group
Protocol: HepG2 cells (2 × 10^5 cells/well) were seeded into 96-well plates and incubated overnight at 37 °C with 5% CO2. The supernatant was removed, and hybrid or parent peptides were added at a final concentration of 100 ng/mL for 2 h. H2O2 (Sigma-Aldrich, St. louis, MO, USA) was then added to a final concentration of 650 μM and the cells were further incubated for 6 h. Cell viability was assessed using the CCK-8 assay.

Sequence	Expression of TNF-α (result in words) (TNF-α)	Expression of IL-1β (result in words) (IL-1β)	Activation of the NF-κB signaling pathway (result in words) (RAW-Lucia NF-κB cells)	Expression of IL-6 (result in words) (IL-6)	Stimulation of the ARE pathway (result in words) (IPEC-J2-Lucia ARE cells)	Protective effect against H2O2-induced oxidative damage (result in words) (HepG2 cells)	Increase of HepG2 cell viability compared to the H2O2-treated group (HepG2 cells; CCK-8)
RGPPPRKDVY [RP, hybrid peptide of parent peptides R and P]	significantly upregulated	significantly upregulated	significantly activated	significantly upregulated			
YGPSSYGYGEVVEEA [YTb, hybrid peptide of parent peptides Y and Tb]		particularly upregulated		particularly upregulated			
QLNWDRKDVY [MP, hybrid peptide of parent peptides M and P]	significantly upregulated	significantly upregulated		significantly upregulated	stimulate the ARE pathway	significant differences compared to the model group	
YGPSSYGYGRKDVY [YP, hybrid peptide of parent peptides Y and P]					stimulate the ARE pathway		
RKDVYYGPSSYGYG [PY, hybrid peptide of parent peptides P and Y]					stimulate the ARE pathway	significant differences compared to the model group	
EVVEEAYGPSSYGYG [TbY, hybrid peptide of parent peptides Tb and Y]	significantly upregulated	significantly upregulated	significantly activated	significantly upregulated			
RKDVYRGPPP [PR, hybrid peptide of parent peptides P and R]	significantly upregulated	significantly upregulated	significantly activated	significantly upregulated			
YGPSSYGYGKEKKEVVE [YTa, hybrid peptide of parent peptides Y and Ta]			significantly activated	significantly increased		significant differences compared to the model group	12%
KEKKEVVEYGPSSYGYG [TaY, hybrid peptide of parent peptides Ta and Y]	significantly upregulated	significantly upregulated		significantly upregulated	stimulate the ARE pathway	significant differences compared to the model group	
